Assay results: patent publication US20260007681A1, “INDOLE DERIVATIVES AS ESTROGEN RECEPTOR DEGRADERS” (REGENTS OF THE UNIVERSITY OF MICHIGAN, priority 2022, published 2026)
Like-named read-outs stand apart in the source and are kept apart here.

What was measured:
ER = ER (Homo sapiens (Human), UniProt P03372); assay: In-cell western blot analysis of relative ER percentage (Compounds B1-B278); type: cell-based; settings: ER degradation, 16 hours, read-out: ICW DC50
Experimental: In-cell western blot analysis. Cells are seeded in multi-well plates (e.g., at 40,000 or 10,000 cells/well). Diluted compounds at certain concentration are added (final 0.5% DMSO) and cells are incubated for […] (e.g., 16 hours). Formaldehyde (e.g., PBS:FA=9:1) is added and followed by washing with PBS. The cells are blocked with Licor blocking buffer (Li-Cor). The relative ER percentage in treated cells are obtained by comparing the values of treated wells to those in untreated and DMSO-treated wells as 100%.
In-cell western blot analysis. a. seed cells in black-sided/clear bottom 96- or 384-well plates at 40,000 or 10,000 cells/well, overnight; b. add diluted compounds (final 0.5% DMSO), 16 hours. 16 h later, remove medium, add 100 μL or 25 μL of 3.7-4.0% formaldehyde (PBS:FA=9:1), RT 20 min, no shaking; c. wash with PBS, and permeabilized with 100 μL or 25 μL/well of 1×PBS+0.1% Triton X-100 10 minutes; d. block with 100 μL or 25 μL Licor blocking buffer (Li-Cor), RT 1 h, moderate shaking; d. Add 100 μL or 25 μL of anti-ER (cs-8644, 1:500-1,000)+GAPDH(Millipore MAB374, 1:1000) in Block+0.05% Tween 20. RT 2 h, gentle shaking. Negative control: cells plus secondary antibodies (no primary antibodies); e. wash×4 with PBS +0.05-0.1% Tween 20, gentel shaking; f. anti-rabbit-680 and anti-mouse-800 (both 1:1000 in LiCor block +0.05% Tween20, RT 1 h, gentle shaking, no light. LI-COR: 0.2% to reduce background; g. wash×4 with PBS+0.05% Tween 20, gental shaking; h. add 100 μL or 25 μL of PBS to each well and read on CLX plate reader. The relative ER percentage in treated cells were obtained by comparing the values of treated wells to those in untreated and DMSO-treated wells as 100%.

[1] = Cell growth assay (WST-8) (Compounds B1-B278); type: cell-based; settings: T47D cell line, WST-8, 4 days, read-out: Cell Growth Inhibition in T47D cell line IC50
Procedure, shortened: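 Read-out is WST-8 absorbance at 450 nm (2.5 h, 37° C) as a fraction of vehicle control, from three separate repeats. Compound exposure lasted 4 days, starting one day after plating 1500 cells/well.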

Chain of ER (P03372 whole entry): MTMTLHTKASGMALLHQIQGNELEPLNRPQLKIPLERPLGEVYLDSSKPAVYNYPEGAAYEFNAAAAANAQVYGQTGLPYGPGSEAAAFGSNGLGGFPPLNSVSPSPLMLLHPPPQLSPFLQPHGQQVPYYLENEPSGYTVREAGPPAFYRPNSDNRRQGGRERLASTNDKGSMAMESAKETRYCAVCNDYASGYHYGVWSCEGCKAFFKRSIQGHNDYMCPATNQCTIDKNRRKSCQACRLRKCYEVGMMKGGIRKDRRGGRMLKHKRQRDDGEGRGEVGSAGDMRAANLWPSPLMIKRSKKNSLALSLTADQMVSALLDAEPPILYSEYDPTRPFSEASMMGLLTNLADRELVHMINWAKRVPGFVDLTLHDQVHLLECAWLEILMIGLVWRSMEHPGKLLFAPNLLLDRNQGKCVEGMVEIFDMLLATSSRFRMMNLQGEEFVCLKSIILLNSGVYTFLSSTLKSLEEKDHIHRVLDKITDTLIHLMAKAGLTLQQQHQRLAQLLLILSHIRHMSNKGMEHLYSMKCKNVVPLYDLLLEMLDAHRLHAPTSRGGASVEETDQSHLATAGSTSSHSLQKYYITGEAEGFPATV

Row | SMILES | DC50 (ER) [nM] | IC50 ([1]; 96 h) [nM] | IC50 [1] [nM]
1 | C[C@@H]1Cc2c([nH]c3ccccc23)[C@@H](c2cnc(N3CCC4(CC3)CC(CN3CCN5c6cc7c(cc6OC[C@@H]5C3)C(=O)N(C3CCC(=O)NC3=O)C7)C4)nc2)N1CC(F)F (stereo partly drawn) [Compound B135, 3-((S)-3-((7-(5-((1R,3R)-2-(2,2-difluoroethyl)-3-methyl-2,3,4,9-tetrahydro-1H-pyrido[3,4-b]indol-1-yl)pyrimidin-2-yl)-7-azaspiro[3.5]nonan-2-yl)methyl)-8-oxo-1,2,3,4,4a,5,8,10-octahydro-9H-pyrazino[1′,2′:4,5][1,4]oxazino[2,3-f]isoindol-9-yl)piperidine-2,6-dione] | < 10 | 1 to 10 | 
2 | C[C@@H]1Cc2c([nH]c3ccccc23)[C@@H](c2cnc(N3CCC4(CCC(CN5CCN6c7cc8c(cc7OC[C@@H]6C5)C(=O)N(C5CCC(=O)NC5=O)C8)CC4)CC3)nc2)N1CC(F)F (stereo partly drawn) [Compound B136, 3-((S)-3-((3-(5-((1R,3R)-2-(2,2-difluoroethyl)-3-methyl-2,3,4,9-tetrahydro-1H-pyrido[3,4-b]indol-1-yl)pyrimidin-2-yl)-3-azaspiro[5.5]undecan-9-yl)methyl)-8-oxo-1,2,3,4,4a,5,8,10-octahydro-9H-pyrazino[1′,2′:4,5][1,4]oxazino[2,3-f]isoindol-9-yl)piperidine-2,6-dione] | 10 to 100 | > 10 | 
3 | C[C@@H]1Cc2c([nH]c3ccccc23)[C@@H](c2cnc(N3CCC4(CCC(CN5CCN6c7cc8c(cc7OC[C@@H]6C5)C(=O)N(C5CCC(=O)NC5=O)C8)CC4)CC3)nc2)N1CC(C)(C)F (stereo partly drawn) [Compound B137, 3-((S)-3-((3-(5-((1R,3R)-2-(2-fluoro-2-methylpropyl)-3-methyl-2,3,4,9-tetrahydro-1H-pyrido[3,4-b]indol-1-yl)pyrimidin-2-yl)-3-azaspiro[5.5]undecan-9-yl)methyl)-8-oxo-1,2,3,4,4a,5,8,10-octahydro-9H-pyrazino[1′,2′:4,5][1,4]oxazino[2,3-f]isoindol-9-yl)piperidine-2,6-dione] | 10 to 100 | > 10 | 
4 | C[C@@H]1Cc2c([nH]c3ccccc23)[C@@H](c2cnc(N3CCC4(CCC(N5CCN6c7cc8c(cc7OC[C@@H]6C5)C(=O)N(C5CCC(=O)NC5=O)C8)CC4)CC3)nc2)N1CC(F)F (stereo partly drawn) [Compound B138, 3-((S)-3-(3-(5-((1R,3R)-2-(2,2-difluoroethyl)-3-methyl-2,3,4,9-tetrahydro-1H-pyrido[3,4-b]indol-1-yl)pyrimidin-2-yl)-3-azaspiro[5.5]undecan-9-yl)-8-oxo-1,2,3,4,4a,5,8,10-octahydro-9H-pyrazino[1′,2′:4,5][1,4]oxazino[2,3-f]isoindol-9-yl)piperidine-2,6-dione] | 10 to 100 | 1 to 10 | 
5 | C[C@@H]1Cc2c([nH]c3ccccc23)[C@@H](c2cnc(N3CCC4(CCC(N5CCN6c7cc8c(cc7OC[C@@H]6C5)C(=O)N(C5CCC(=O)NC5=O)C8)CC4)CC3)nc2)N1CC(C)(C)F (stereo partly drawn) [Compound B139, 3-((S)-3-(3-(5-((1R,3R)-2-(2-fluoro-2-methylpropyl)-3-methyl-2,3,4,9-tetrahydro-1H-pyrido[3,4-b]indol-1-yl)pyrimidin-2-yl)-3-azaspiro[5.5]undecan-9-yl)-8-oxo-1,2,3,4,4a,5,8,10-octahydro-9H-pyrazino[1′,2′:4,5][1,4]oxazino[2,3-f]isoindol-9-yl)piperidine-2,6-dione] | < 10 | 1 to 10 | 
6 | COc1cc(N2CCC3(CC2)CC(CN2CCC4(CC2)COc2c4ccc4c2CN(C2CCC(=O)NC2=O)C4=O)C3)ccc1[C@@H]1c2[nH]c3ccccc3c2C[C@@H](C)N1CC(F)F (stereo partly drawn) [Compound B140, 3-(1′-((7-(4-((1R,3R)-2-(2,2-difluoroethyl)-3-methyl-2,3,4,9-tetrahydro-1H-pyrido[3,4-b]indol-1-yl)-3-methoxyphenyl)-7-azaspiro[3.5]nonan-2-yl)methyl)-6-oxo-6,8-dihydro-2H,7H-spiro[furo[2,3-e]isoindole-3,4′-piperidin]-7-yl)piperidine-2,6-dione] | < 10 | < 1 | 
7 | C[C@@H]1Cc2c([nH]c3ccccc23)[C@@H](c2ccc(N3CCC4(CC3)CC(CN3CCC5(CC3)COc3c5ccc5c3CN(C3CCC(=O)NC3=O)C5=O)CO4)cn2)N1CC(F)(F)F (stereo partly drawn) [Compound B145, 3-(1′-((8-(6-((1S,3R)-3-methyl-2-(2,2,2-trifluoroethyl)-2,3,4,9-tetrahydro-1H-pyrido[3,4-b]indol-1-yl)pyridin-3-yl)-1-oxa-8-azaspiro[4.5]decan-3-yl)methyl)-6-oxo-6,8-dihydro-2H,7H-spiro[furo[2,3-e]isoindole-3,4′-piperidin]-7-yl)piperidine-2,6-dionc] | < 10 | < 1 | 
8 | C[C@@H]1Cc2c([nH]c3ccccc23)[C@@H](c2ccc(N3CCC4(CC3)CC(CN3CCN5c6ccc7c(c6OC[C@H]5C3)CN([C@H]3CCC(=O)NC3=O)C7=O)CO4)cn2)N1CC(F)(F)F (stereo partly drawn) [Compound B146, (3S)-3-((5aR)-7-((8-(6-((1S,3R)-3-methyl-2-(2,2,2-trifluoroethyl)-2,3,4,9-tetrahydro-1H-pyrido[3,4-b]indol-1-yl)pyridin-3-yl)-1-oxa-8-azaspiro[4.5]decan-3-yl)methyl)-1-oxo-1,3,5,5a,6,7,8,9-octahydro-2H-pyrazino[1′,2′:4,5][1,4]oxazino[2,3-e]isoindol-2-yl)piperidine-2,6-dione] | 10 to 100 | 1 to 10 | 

Second part, led by results:

Row | DC50 (ER) [nM] | SMILES | IC50 ([1]; 96 h) [nM] | IC50 [1] [nM]
9 | < 10 | COc1cc(N2CCC3(CC2)CC(CN2CCN4c5cc6c(cc5OC[C@@H]4C2)C(=O)N(C2CCC(=O)NC2=O)C6)C3)ccc1[C@@H]1c2[nH]c3ccccc3c2C[C@@H](C)N1CC(F)F (stereo partly drawn) [Compound B141, 3-((S)-3-((7-(4-((1R,3R)-2-(2,2-difluoroethyl)-3-methyl-2,3,4,9-tetrahydro-1H-pyrido[3,4-b]indol-1-yl)-3-methoxyphenyl)-7-azaspiro[3.5]nonan-2-yl)methyl)-8-oxo-1,2,3,4,4a,5,8,10-octahydro-9H-pyrazino[1′,2′:4,5][1,4]oxazino[2,3-f]isoindol-9-yl)piperidine-2,6-dione] | 1 to 10 | 
10 | 10 to 100 | COc1cc(N2CCC3(CC2)CC(CN2CCN4c5cc6c(cc5OC[C@@H]4C2)C(=O)N(C2CCC(=O)NC2=O)C6)CO3)ccc1[C@@H]1c2[nH]c3ccccc3c2C[C@@H](C)N1CC(F)F (stereo partly drawn) [Compound B142, 3-((4aS)-3-((8-(4-((1R,3R)-2-(2,2-difluoroethyl)-3-methyl-2,3,4,9-tetrahydro-1H-pyrido[3,4-b]indol-1-yl)-3-methoxyphenyl)-1-oxa-8-azaspiro[4.5]decan-3-yl)methyl)-8-oxo-1,2,3,4,4a,5,8,10-octahydro-9H-pyrazino[1′,2′:4,5][1,4]oxazino[2,3-f]isoindol-9-yl)piperidine-2,6-dione] | < 1 | 
11 | < 10 | COc1cc(N2CCC3(CC2)CC(CN2CCN4c5ccc6c(c5OC[C@H]4C2)CN(C2CCC(=O)NC2=O)C6=O)CO3)ccc1[C@@H]1c2[nH]c3ccccc3c2C[C@@H](C)N1CC(F)F (stereo partly drawn) [Compound B143, 3-((5aR)-7-((8-(4-((1R,3R)-2-(2,2-difluoroethyl)-3-methyl-2,3,4,9-tetrahydro-1H-pyrido[3,4-b]indol-1-yl)-3-methoxyphenyl)-1-oxa-8-azaspiro[4.5]decan-3-yl)methyl)-1-oxo-1,3,5,5a,6,7,8,9-octahydro-2H-pyrazino[1′,2′:4,5][1,4]oxazino[2,3-e]isoindol-2-yl)piperidine-2,6-dione] | < 1 | 
12 | < 10 | COc1cc(N2CCC3(CC2)CC(CN2CCN4c5ccc6c(c5OC[C@H]4C2)CN(C2CCC(=O)NC2=O)C6=O)CO3)ccc1[C@@H]1c2[nH]c3ccccc3c2C[C@@H](C)N1CC(F)F (stereo partly drawn) [Compound B144, (3S)-3-((5aR)-7-((8-(4-((1R,3R)-2-(2,2-difluoroethyl)-3-methyl-2,3,4,9-tetrahydro-1H-pyrido[3,4-b]indol-1-yl)-3-methoxyphenyl)-1-oxa-8-azaspiro[4.5]dccan-3-yl)methyl)-1-oxo-1,3,5,5a,6,7,8,9-octahydro-2H-pyrazino[1′,2′:4,5][1,4]oxazino[2,3-e]isoindol-2-yl)piperidine-2,6-dione] |  | < 1
